According to BindingDB's records for patent WO2025049746 (Eikon Therapeutics, 2025):

Tests used:
[1] = target: Bifunctional 3'-5' exonuclease/ATP-dependent helicase WRN (Homo sapiens, UniProt Q14191); assay: ADP-Glo Kinase Assay
Method: ATPase activity was measured using the ADP-Glo Kinase Assay following the manufacturers recommended protocol.

[2] = target: T1, Bifunctional 3'-5' exonuclease/ATP-dependent helicase WRN [480-1251] (UniProt Q14191); assay: Biochemical Activity Assays
T1 construct: 480-1251
Method: The pure fractions were pooled and desalted/buffer exchanged into storage buffer using a HiTrap desalting column. […] First, WRN alone was pre-incubated with DMSO or compound of interest for 15 minutes. To initiate the reaction, ATP, dsDNA substrate, and ssDNA competitor (ssDNA_comp: […]) were added and incubated at room temperature for 20 minutes at which point DNA unwinding activity was monitored by measuring Cy3 fluorescence. After obtaining the reading, the ATPase activity was measured using the ADP-Glo Kinase Assay following the manufacturers recommended protocol. […] Compounds were assayed in a 10-point dose response in duplicate at a 1% DMSO final assay concentration.

Sequence of Bifunctional 3'-5' exonuclease/ATP-dependent helicase WRN (Q14191 whole entry): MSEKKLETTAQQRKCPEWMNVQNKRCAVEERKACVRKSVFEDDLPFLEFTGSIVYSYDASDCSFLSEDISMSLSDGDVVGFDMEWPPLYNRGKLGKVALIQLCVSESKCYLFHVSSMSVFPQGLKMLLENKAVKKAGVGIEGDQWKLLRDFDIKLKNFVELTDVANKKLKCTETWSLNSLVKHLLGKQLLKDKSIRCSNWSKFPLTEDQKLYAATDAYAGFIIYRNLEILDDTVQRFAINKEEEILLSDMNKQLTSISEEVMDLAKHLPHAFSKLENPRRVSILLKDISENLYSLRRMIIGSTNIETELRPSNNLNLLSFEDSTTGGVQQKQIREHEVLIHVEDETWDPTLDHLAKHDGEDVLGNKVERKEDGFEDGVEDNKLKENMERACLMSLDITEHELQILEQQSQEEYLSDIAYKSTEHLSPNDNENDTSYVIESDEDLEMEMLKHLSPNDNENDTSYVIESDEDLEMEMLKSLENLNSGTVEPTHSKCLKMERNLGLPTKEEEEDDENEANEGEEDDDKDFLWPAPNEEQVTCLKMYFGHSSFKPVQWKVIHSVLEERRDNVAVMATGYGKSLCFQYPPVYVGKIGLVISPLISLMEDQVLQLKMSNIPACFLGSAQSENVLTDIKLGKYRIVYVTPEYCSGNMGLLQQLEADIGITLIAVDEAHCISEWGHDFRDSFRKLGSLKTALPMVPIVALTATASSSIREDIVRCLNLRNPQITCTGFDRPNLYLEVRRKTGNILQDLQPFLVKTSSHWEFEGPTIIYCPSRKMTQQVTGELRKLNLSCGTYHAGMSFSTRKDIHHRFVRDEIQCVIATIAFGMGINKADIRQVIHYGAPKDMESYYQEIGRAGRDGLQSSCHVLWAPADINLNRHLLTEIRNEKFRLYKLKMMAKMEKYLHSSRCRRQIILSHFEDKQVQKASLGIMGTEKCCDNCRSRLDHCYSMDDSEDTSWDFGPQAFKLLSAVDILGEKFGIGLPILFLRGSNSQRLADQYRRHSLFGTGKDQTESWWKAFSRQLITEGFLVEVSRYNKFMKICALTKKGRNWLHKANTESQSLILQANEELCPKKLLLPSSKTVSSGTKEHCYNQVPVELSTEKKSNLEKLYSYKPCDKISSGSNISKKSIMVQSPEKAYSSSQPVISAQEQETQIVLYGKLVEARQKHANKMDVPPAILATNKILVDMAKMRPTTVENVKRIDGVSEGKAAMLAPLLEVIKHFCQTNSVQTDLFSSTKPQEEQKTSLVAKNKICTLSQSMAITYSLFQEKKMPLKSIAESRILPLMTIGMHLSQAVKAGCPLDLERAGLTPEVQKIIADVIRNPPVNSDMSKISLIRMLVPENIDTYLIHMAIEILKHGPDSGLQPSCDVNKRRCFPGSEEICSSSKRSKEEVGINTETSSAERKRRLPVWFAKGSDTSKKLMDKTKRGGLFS
T1 sequence (Q14191 480-1251): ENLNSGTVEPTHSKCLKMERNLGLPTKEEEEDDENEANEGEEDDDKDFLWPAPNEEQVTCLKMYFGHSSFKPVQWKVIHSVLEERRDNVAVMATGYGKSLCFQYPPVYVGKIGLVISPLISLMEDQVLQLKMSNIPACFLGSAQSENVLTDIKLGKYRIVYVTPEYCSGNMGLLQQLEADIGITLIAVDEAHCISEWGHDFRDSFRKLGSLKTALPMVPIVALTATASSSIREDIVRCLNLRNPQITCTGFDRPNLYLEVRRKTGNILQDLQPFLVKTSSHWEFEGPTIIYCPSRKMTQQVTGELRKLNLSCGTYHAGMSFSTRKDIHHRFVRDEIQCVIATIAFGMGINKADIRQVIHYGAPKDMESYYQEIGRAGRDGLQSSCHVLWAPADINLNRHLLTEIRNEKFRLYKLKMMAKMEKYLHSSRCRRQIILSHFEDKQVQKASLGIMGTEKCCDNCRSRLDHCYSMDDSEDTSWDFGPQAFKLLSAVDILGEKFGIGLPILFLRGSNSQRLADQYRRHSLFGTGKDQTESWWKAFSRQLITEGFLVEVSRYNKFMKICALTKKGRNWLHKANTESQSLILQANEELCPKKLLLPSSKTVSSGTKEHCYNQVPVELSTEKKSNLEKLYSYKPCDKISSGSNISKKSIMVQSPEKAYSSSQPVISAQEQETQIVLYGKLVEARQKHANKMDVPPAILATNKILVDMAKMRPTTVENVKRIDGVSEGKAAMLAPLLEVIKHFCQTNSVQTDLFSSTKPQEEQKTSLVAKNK

Compound: CCc1c(N2CCN(C(=O)c3ncnc(C)c3O)CC2)c(=O)n2nc(-c3ccc4c(c3)OCCO4)nc2n1CC(=O)Nc1ccc(C(F)(F)F)cc1Cl [WO2025049746, Example 1]
- IC50 [1]: 0.0236 µM
- IC50 [2]: 0.0207 µM

Compound: CCc1c(N2CCN(C(=O)c3ncnc(C)c3O)CC2)c(=O)n2nc(-c3cccc4c3OCCO4)nc2n1CC(=O)Nc1ccc(C(F)(F)F)cc1Cl [WO2025049746, Example 2]
- IC50 [1]: 0.0271 µM
- IC50 [2]: 0.0187 µM

Compound: CCc1c(N2CCN(C(=O)c3ncnc(C)c3O)CC2)c(=O)n2nc(-c3ccc4c(c3)CCOC4)nc2n1CC(=O)Nc1ccc(C(F)(F)F)cc1Cl [WO2025049746, Example 3]
- IC50 [1]: 0.0412 µM
- IC50 [2]: 0.0344 µM

Compound: CCc1c(N2CCN(C(=O)c3ncnc(C)c3O)CC2)c(=O)n2nc(-c3cccc4c3CCOC4)nc2n1CC(=O)Nc1ccc(C(F)(F)F)cc1Cl [WO2025049746, Example 4]
- IC50 [2]: 0.0662 µM

Compound: CCc1c(N2CCN(C(=O)c3ncnc(C)c3O)CC2)c(=O)n2nc(-c3cccc4c3COCC4)nc2n1CC(=O)Nc1ccc(C(F)(F)F)cc1Cl [WO2025049746, Example 5]
- IC50 [1]: 0.0869 µM
- IC50 [2]: 0.0599 µM

Compound: CCc1c(N2CCN(C(=O)c3ncnc(C)c3O)CC2)c(=O)n2nc(-c3ccc4c(c3)OCO4)nc2n1CC(=O)Nc1ccc(C(F)(F)F)cc1Cl [WO2025049746, Example 10]
- IC50 [1]: 0.0285 µM
- IC50 [2]: 0.0221 µM

Compound: CCc1c(N2CCN(C(=O)c3ncnc(C)c3O)CC2)c(=O)n2nc(-c3ccc4c(c3)CCO4)nc2n1CC(=O)Nc1ccc(C(F)(F)F)cc1Cl [WO2025049746, Example 11]
- IC50 [1]: 0.0273 µM
- IC50 [2]: 0.0246 µM

Compound: CCc1c(N2CCN(C(=O)c3ncnc(C)c3O)CC2)c(=O)n2nc(-c3ccc4c(c3)OCC4)nc2n1CC(=O)Nc1ccc(C(F)(F)F)cc1Cl [WO2025049746, Example 12]
- IC50 [1]: 0.0349 µM
- IC50 [2]: 0.0279 µM

Compound: CCc1c(N2CCN(C(=O)c3ncnc(C)c3O)CC2)c(=O)n2nc(-c3ccc4c(c3)COC4)nc2n1CC(=O)Nc1ccc(C(F)(F)F)cc1Cl [WO2025049746, Example 13]
- IC50 [1]: 0.0273 µM
- IC50 [2]: 0.0235 µM

Compound: CCc1c(N2CCN(C(=O)c3ncnc(C)c3O)CC2)c(=O)n2nc(-c3cnc4c(c3)COC4)nc2n1CC(=O)Nc1ccc(C(F)(F)F)cc1Cl [WO2025049746, Example 14]
- IC50 [1]: 0.0393 µM
- IC50 [2]: 0.0331 µM

Compound: CCc1c(N2CCN(C(=O)c3ncnc(C)c3O)CC2)c(=O)n2nc(-c3cccc4c3COC4)nc2n1CC(=O)Nc1ccc(C(F)(F)F)cc1Cl [WO2025049746, Example 15]
- IC50 [1]: 0.04 µM
- IC50 [2]: 0.0344 µM

Compound: CCc1c(N2CCN(C(=O)c3ncnc(C)c3O)CC2)c(=O)n2nc(-c3cccc4c3OCO4)nc2n1CC(=O)Nc1ccc(C(F)(F)F)cc1Cl [WO2025049746, Example 16]
- IC50 [1]: 0.0249 µM
- IC50 [2]: 0.0224 µM

Compound: CCc1c(N2CCN(C(=O)c3ncnc(C)c3O)CC2)c(=O)n2nc(-c3cnn4c3COCC4)nc2n1CC(=O)Nc1ccc(C(F)(F)F)cc1Cl [WO2025049746, Example 20]
- IC50 [1]: 0.0886 µM
- IC50 [2]: 0.0536 µM

Compound: CCc1c(N2CCN(C(=O)c3ncnc(C)c3O)CC2)c(=O)n2nc(-c3ccc4oc(C)nc4c3)nc2n1CC(=O)Nc1ccc(C(F)(F)F)cc1Cl [WO2025049746, Example 21]
- IC50 [1]: 0.0448 µM
- IC50 [2]: 0.0385 µM

Compound: CCc1c(N2CCN(C(=O)c3ncnc(C)c3O)CC2)c(=O)n2nc(-c3cccc4c3cnn4C)nc2n1CC(=O)Nc1ccc(C(F)(F)F)cc1Cl [WO2025049746, Example 22]
- IC50 [1]: 0.0371 µM
- IC50 [2]: 0.0294 µM

Compound: CCc1c(N2CCN(C(=O)c3ncnc(C)c3O)CC2)c(=O)n2nc(-c3cccc4nc(C)oc34)nc2n1CC(=O)Nc1ccc(C(F)(F)F)cc1Cl [WO2025049746, Example 23]
- IC50 [1]: 0.0437 µM
- IC50 [2]: 0.03 µM

Compound: CCc1c(N2CCN(C(=O)c3ncnc(C)c3O)CC2)c(=O)n2nc(-c3cncc4c3cnn4C)nc2n1CC(=O)Nc1ccc(C(F)(F)F)cc1Cl [WO2025049746, Example 24]
- IC50 [1]: 0.0429 µM
- IC50 [2]: 0.0329 µM

Compound: CCc1c(N2CCN(C(=O)c3ncnc(C)c3O)CC2)c(=O)n2nc(N3CCCOCC3)nc2n1CC(=O)Nc1ccc(C(F)(F)F)cc1Cl [WO2025049746, Example 25]
- IC50 [1]: 0.0639 µM
- IC50 [2]: 0.0488 µM

Compound: CCc1c(N2CCN(C(=O)c3ncnc(C)c3O)CC2)c(=O)n2nc(N3CC4(COC4)C3)nc2n1CC(=O)Nc1ccc(C(F)(F)F)cc1Cl [WO2025049746, Example 26]
- IC50 [1]: 0.0768 µM
- IC50 [2]: 0.0621 µM

Compound: CCc1c(N2CCN(C(=O)c3ncnc(C)c3O)CC2)c(=O)n2nc(N3CC(OC)C3)nc2n1CC(=O)Nc1ccc(C(F)(F)F)cc1Cl [WO2025049746, Example 27]
- IC50 [1]: 0.0863 µM
- IC50 [2]: 0.056 µM

Compound: CCc1c(N2CCN(C(=O)c3ncnc(C)c3O)CC2)c(=O)n2nc(N3CCC3)nc2n1CC(=O)Nc1ccc(C(F)(F)F)cc1Cl [WO2025049746, Example 28]
- IC50 [1]: 0.0909 µM
- IC50 [2]: 0.0603 µM

Compound: CCc1c(N2CCN(C(=O)c3ncnc(C)c3O)CC2)c(=O)n2nc(N3CCC4(COC4)C3)nc2n1CC(=O)Nc1ccc(C(F)(F)F)cc1Cl [WO2025049746, Example 29]
- IC50 [1]: 0.0739 µM
- IC50 [2]: 0.0632 µM

Compound: CCc1c(N2CCN(C(=O)c3ncnc(C)c3O)CC2)c(=O)n2nc(N(C)C)nc2n1CC(=O)Nc1ccc(C(F)(F)F)cc1Cl [WO2025049746, Example 30]
- IC50 [1]: 0.053 µM
- IC50 [2]: 0.0372 µM

Compound: CCc1c(N2CCN(C(=O)c3ncnc(C)c3O)CC2)c(=O)n2nc(N3CCCn4nccc43)nc2n1CC(=O)Nc1ccc(C(F)(F)F)cc1Cl [WO2025049746, Example 31]
- IC50 [1]: 0.0452 µM
- IC50 [2]: 0.0289 µM

Compound: CCc1c(N2CCN(C(=O)c3nc4n(c(=O)c3O)CCOC4)CC2)c(=O)n2nc(C3=CCOCC3)nc2n1CC(=O)Nc1ccc(C(F)(F)F)cc1Cl [WO2025049746, Example 32]
- IC50 [1]: 0.0297 µM
- IC50 [2]: 0.025 µM

Compound: CCc1c(N2CCN(C(=O)c3cn(C)[nH]c3=O)CC2)c(=O)n2nc(C3=CCOCC3)nc2n1CC(=O)Nc1ccc(C(F)(F)F)cc1Cl [WO2025049746, Example 33]
- IC50 [1]: 0.031 µM
- IC50 [2]: 0.0258 µM

Compound: CCc1c(N2CCN(C(=O)c3ncnc(C)c3O)CC2)c(=O)n2nc(-c3cncc4c3CCOC4)nc2n1CC(=O)Nc1ccc(C(F)(F)F)cc1Cl [WO2025049746, Example 163]
- IC50 [1]: 29.7 µM

Compound: CCc1c(N2CCN(C(=O)c3ncnc(C)c3O)CC2)c(=O)n2nc(-c3ccc4c(c3C)COC4)nc2n1CC(=O)Nc1ccc(C(F)(F)F)cc1Cl [WO2025049746, Example 196]
- IC50 [1]: 9.99 µM

Compound: CCc1c(N2CCN(C(=O)c3ncnc(C)c3O)CC2)c(=O)n2nc(-c3cc(OC)c(OC)c(OC)c3)nc2n1CC(=O)Nc1ccc(C(F)(F)F)cc1Cl [WO2025049746, Example 268]
- IC50 [1]: 29.7 µM

Compound: CCc1c(N2CC3CCN(C(=O)c4ncnc(C)c4O)CC32)c(=O)n2nc(C3=CCOCC3)nc2n1CC(=O)Nc1ccc(C(F)(F)F)cc1Cl (stereo not drawn) [WO2025049746, Example 346]
- IC50 [1]: 29.7 µM

Compound: CCc1c(N2CCN(C(=O)c3ncnc(C)c3O)CC2)c(=O)n2nc(C3=CCOCC3)nc2n1CC(=O)NC12CC(C34CC(C(C)(F)F)(C3)C4)(C1)C2 [WO2025049746, Example 354]
- IC50 [1]: 29.7 µM

Compound: CCc1c(N2CCN(C(=O)c3ncnc(C)c3O)CC2)c(=O)n2nc(C3=CCOCC3)nc2n1CC(=O)NC12CCC(C(F)(F)F)(CC1)OC2 [WO2025049746, Example 358]
- IC50 [1]: 29.7 µM

Compound: CCc1c(N2CCN(C(=O)C3CCOCC3)CC2)c(=O)n2nc(-c3ccnc(O)n3)nc2n1CC(=O)Nc1ccc(C(F)(F)F)cc1Cl [WO2025049746, Example 431]
- IC50 [1]: 29.7 µM
